From patent publication US20120157471A1, “BENZIMIDAZOLE DERIVATIVES” (PFIZER INC., priority 2009, published 2012)

Columns and labels:
Gli-Luc/MEF cells (Smo) = assay: Gli-Luc/MEF assay (Shh-stimulated luciferase reporter under the Gli response element); type: cell-based, mouse; conditions: Mus musculus, MEF, 48 h
How it was run: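 Mouse Gli-Luc/MEF cells dosed with compound (3-fold series, […]) plus 2 μg/mL recombinant mouse Shh, then incubated 48 h at 37° C, 5% CO2. Bright-Glo luminescence read; IC50 calculated from inhibition of Shh-stimulated luciferase.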

[1] = molecular target: T1, human Smo (amino acids 181-787) (Homo sapiens, UniProt Q99835); assay: Smo radioligand competition binding assay (displacement of 3H-PF-03451358 from HEK293 membranes); conditions: for inhibition at 0.05 µM: 0.05 μM test compound, displacement of 3H-PF-03451358, read-out: SMO % inh. @ 0.05 μM; for IC50: radioligand competition binding
T1 construct: expressed in transfected cells; membrane preparation
How it was run: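 Membranes (40 μg protein/well) from HEK293 expressing murine Igk-leader-fused Smo 181-787 incubated 2 h at room temperature with 3 nM 3H-PF-03451358 in Tris pH 7.5/NaCl/MgCl2/EDTA/BSA buffer; filter-bound counts by scintillation. Nonspecific binding with 30 μM cold PF-03451358; IC50 from four-parameter fit of % inhibition.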

T1 sequence (Q99835 181-787): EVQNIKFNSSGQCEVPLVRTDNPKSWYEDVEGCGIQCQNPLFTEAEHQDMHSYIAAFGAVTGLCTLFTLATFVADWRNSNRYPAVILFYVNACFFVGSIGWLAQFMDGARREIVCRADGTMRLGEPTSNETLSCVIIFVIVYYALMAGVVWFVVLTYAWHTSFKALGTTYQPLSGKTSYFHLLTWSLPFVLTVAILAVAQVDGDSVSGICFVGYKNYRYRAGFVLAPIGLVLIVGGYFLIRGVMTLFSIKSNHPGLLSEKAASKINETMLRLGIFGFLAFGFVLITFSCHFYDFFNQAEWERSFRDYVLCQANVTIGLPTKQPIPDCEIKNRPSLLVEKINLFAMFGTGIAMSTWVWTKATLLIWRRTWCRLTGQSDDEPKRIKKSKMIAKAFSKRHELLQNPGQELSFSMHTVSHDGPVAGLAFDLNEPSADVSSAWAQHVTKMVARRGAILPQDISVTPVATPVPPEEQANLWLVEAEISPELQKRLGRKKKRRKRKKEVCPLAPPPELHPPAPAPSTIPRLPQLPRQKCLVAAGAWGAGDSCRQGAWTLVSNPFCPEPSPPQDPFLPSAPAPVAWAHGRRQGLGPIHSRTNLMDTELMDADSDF

Molecule `Cn1c(-c2cc(N3CCN4C[C@H](O)CC4C3)ncc2Cl)nc2ccccc21` (stereo in doubt) [Example A-92, (7R,8aR)-2-[5-chloro-4-(1-methyl-1H-benzimidazol-2-yl)pyridin-2-yl]octahydropyrrolo[1,2-a]pyrazin-7-ol] has an IC50 (Gli-Luc/MEF cells (Smo)) of 46 nM, an inhibition at 0.05 µM [1] of 88% and an IC50 [1] of 79 nM.
For `Cn1c(-c2cc(N3CCN(C(=O)c4ncn[nH]4)CC3)ncc2Cl)nc2ccccc21` [Example A-56, 2-{5-chloro-2-[4-(1H-1,2,4-triazol-3-ylcarbonyl)piperazin-1-yl]pyridin-4-yl}-1-methyl-1H-benzimidazole], the IC50 (Gli-Luc/MEF cells (Smo)) was 9 nM, the inhibition at 0.05 µM [1] was 98% and the IC50 [1] was 21 nM.
Work on `COC(=O)NC1CCN(c2cc(-c3nc4ccccc4n3C)c(Cl)cn2)C1` (stereo not drawn) [Example A-152, methyl {1-[5-chloro-4-(1-methyl-1H-benzimidazol-2-yl)pyridin-2-yl]pyrrolidin-3-yl}carbamate] yielded an IC50 (Gli-Luc/MEF cells (Smo)) of 21 nM, an inhibition at 0.05 µM [1] of 87% and an IC50 [1] of 69 nM.
Molecule `COC(=O)N1CCN(c2cc(-c3nc4ccccc4n3C)ccn2)CC1` [Example A-141, methyl 4-[4-(1-methyl-1H-benzimidazol-2-yl)pyridin-2-yl]piperazine-1-carboxylate] has an IC50 (Gli-Luc/MEF cells (Smo)) of 27 nM, an inhibition at 0.05 µM [1] of 96% and an IC50 [1] of 34 nM.
In the case of `CN(CC(C)(C)O)c1cc(-c2nc3ccccc3n2C)c(Cl)cn1` [Example A-209, 1-{[5-chloro-4-(1-methyl-1H-benzimidazol-2-yl)pyridin-2-yl](methyl)amino}-2-methylpropan-2-ol], the IC50 (Gli-Luc/MEF cells (Smo)) is reported as 19.6 nM, the inhibition at 0.05 µM [1] is reported as 97% and the IC50 [1] is reported as 18 nM.
In the case of `Cn1c(-c2cc(N3CCOCC(Cc4cncnc4)C3)ncc2Cl)nc2ccccc21` (stereo not drawn) [Example A-46, 2-{5-chloro-2-[6-(pyrimidin-5-ylmethyl)-1,4-oxazepan-4-yl]pyridin-4-yl}-1-methyl-1H-benzimidazole], the IC50 (Gli-Luc/MEF cells (Smo)) is reported as 9 nM, the inhibition at 0.05 µM [1] is reported as 101% and the IC50 [1] is reported as 14 nM.
`Cc1nccc(C2(O)CCN(c3cc(-c4nc5ccccc5n4C)c(Cl)cn3)C2)n1` (stereo not drawn) [Example A-123, 1-[5-chloro-4-(1-methyl-1H-benzimidazol-2-yl)pyridin-2-yl]-3-(2-methylpyrimidin-4-yl)pyrrolidin-3-ol] gave an IC50 (Gli-Luc/MEF cells (Smo)) of 114 nM and an inhibition at 0.05 µM [1] of 59%.
In the case of `CN(C1CCN(c2cc(-c3nc4ccccc4n3C)c(Cl)cn2)CC1)S(C)(=O)=O` [Example A-6, N-{1-[5-chloro-4-(1-methyl-1H-benzimidazol-2-yl)pyridin-2-yl]piperidin-4-yl}-N-methylmethanesulfonamide], the IC50 (Gli-Luc/MEF cells (Smo)) is reported as 3 nM and the inhibition at 0.05 µM [1] is reported as 96%.
In the case of `CC(=O)N(C)C1CN(c2cc(-c3nc4ccccc4n3C)c(Cl)cn2)C1` [Example A-177, N-{1-[5-chloro-4-(1-methyl-1H-benzimidazol-2-yl)pyridin-2-yl]azetidin-3-yl}-N-methylacetamide], the IC50 (Gli-Luc/MEF cells (Smo)) is reported as 38 nM, the inhibition at 0.05 µM [1] is reported as 73% and the IC50 [1] is reported as 174 nM.
Molecule `CC(=O)N1CCN(c2cc(-c3nc4ccccc4n3C)c(Cl)cn2)C[C@@H]1C` [Example A-162, 2-{2-[(3S)-4-acetyl-3-methylpiperazin-1-yl]-5-chloropyridin-4-yl}-1-methyl-1H-benzimidazole] has an IC50 (Gli-Luc/MEF cells (Smo)) of 5 nM, an inhibition at 0.05 µM [1] of 91% and an IC50 [1] of 7 nM.
`CCC(=O)N1CCN(c2cc(-c3nc4ccccc4n3C)c(F)cn2)CC1` [Example D-4, 2-[5-fluoro-2-(4-propionylpiperazin-1-yl)pyridin-4-yl]-1-methyl-1H-benzimidazole] was tested, and the IC50 (Gli-Luc/MEF cells (Smo)) was 20 nM, the inhibition at 0.05 µM [1] was 98% and the IC50 [1] was 19 nM.
For `CCNC(=O)N1CCN(c2cc(-c3nc4ccccc4n3C)c(F)cn2)CC1` [Example D-3, N-ethyl-4-[5-fluoro-4-(1-methyl-1H-benzimidazol-2-yl)pyridin-2-yl]piperazine-1-carboxamide], the IC50 (Gli-Luc/MEF cells (Smo)) was 10 nM, the inhibition at 0.05 µM [1] was 98% and the IC50 [1] was 8 nM.
For `COC(=O)N1CCN(c2cc(-c3nc4ccccc4n3C)c(F)cn2)CC1` [Example D-2, methyl 4-[5-fluoro-4-(1-methyl-1H-benzimidazol-2-yl)pyridin-2-yl]piperazine-1-carboxylate], the IC50 (Gli-Luc/MEF cells (Smo)) was 13 nM, the inhibition at 0.05 µM [1] was 95% and the IC50 [1] was 13 nM.
`Cn1c(-c2nc(N3CCC(O)CC3)ccc2Cl)nc2ccccc21` [Example B-6, 1-[5-chloro-6-(1-methyl-1H-benzimidazol-2-yl)pyridin-2-yl]piperidin-4-ol] gave an IC50 (Gli-Luc/MEF cells (Smo)) of 12 nM, an inhibition at 0.05 µM [1] of 95% and an IC50 [1] of 10 nM.
Molecule `Cn1c(-c2cc(N3CCN(C(=O)CO)CC3)ncc2Cl)nc2ccccc21` [Example A-202, 2-{4-[5-chloro-4-(1-methyl-1H-benzimidazol-2-yl)pyridin-2-yl]piperazin-1-yl}-2-oxoethanol] has an IC50 (Gli-Luc/MEF cells (Smo)) of 9 nM, an inhibition at 0.05 µM [1] of 97% and an IC50 [1] of 11 nM.
In the case of `Cn1c(-c2cc(N3CCC(C(=O)NCCO)CC3)ncc2Cl)nc2ccccc21` [Example A-74, 1-[5-chloro-4-(1-methyl-1H-benzimidazol-2-yl)pyridin-2-yl]-N-(2-hydroxyethyl)piperidine-4-carboxamide], the IC50 (Gli-Luc/MEF cells (Smo)) is reported as 11 nM, the inhibition at 0.05 µM [1] is reported as 93% and the IC50 [1] is reported as 27 nM.
`CC(=O)NCC1CCN(c2cc(-c3nc4ccccc4n3C)c(Cl)cn2)CC1` [Example A-87, N-({1-[5-chloro-4-(1-methyl-1H-benzimidazol-2-yl)pyridin-2-yl]piperidin-4-yl}methyl)acetamide] gave an IC50 (Gli-Luc/MEF cells (Smo)) of 9 nM, an inhibition at 0.05 µM [1] of 89% and an IC50 [1] of 58 nM.
For `CNS(=O)(=O)C1CCN(c2cc(-c3nc4ccccc4n3C)c(Cl)cn2)C1` (stereo not drawn) [Example A-104, 1-[5-chloro-4-(1-methyl-1H-benzimidazol-2-yl)pyridin-2-yl]-N-methylpyrrolidine-3-sulfonamide], the IC50 (Gli-Luc/MEF cells (Smo)) was 23 nM, the inhibition at 0.05 µM [1] was 80% and the IC50 [1] was 37 nM.
For `CN(CCO)c1cc(-c2nc3ccccc3n2C)c(Cl)cn1` [Example A-164, 2-{[5-chloro-4-(1-methyl-1H-benzimidazol-2-yl)pyridin-2-yl](methyl)amino}ethanol], the IC50 (Gli-Luc/MEF cells (Smo)) was 14 nM, the inhibition at 0.05 µM [1] was 97% and the IC50 [1] was 15 nM.
With `Cn1c(-c2cc(N3CC(NC(=O)C4CCOCC4)C3)ncc2Cl)nc2ccccc21` [Example A-205, N-{1-[5-chloro-4-(1-methyl-1H-benzimidazol-2-yl)pyridin-2-yl]azetidin-3-yl}tetrahydro-2H-pyran-4-carboxamide] the IC50 (Gli-Luc/MEF cells (Smo)) was 14.2 nM and the inhibition at 0.05 µM [1] was 93%.
`Cn1c(-c2cc(N3CCN(C(=O)CO)CC3)ncc2F)nc2ccccc21` [Example D-17, 1-{4-[5-fluoro-4-(1-methyl-1H-benzimidazol-2-yl)pyridin-2-yl]piperazin-1-yl}-2-hydroxyethanone] gave an IC50 (Gli-Luc/MEF cells (Smo)) of 13 nM, an inhibition at 0.05 µM [1] of 96% and an IC50 [1] of 15 nM.
For `Cn1c(-c2ccnc(N3CCC(CS(C)(=O)=O)CC3)c2)nc2ccccc21` [Example A-12, 1-methyl-2-(2-{4-[(methylsulfonyl)methyl]piperidin-1-yl}pyridin-4-yl)-1H-benzimidazole], the IC50 (Gli-Luc/MEF cells (Smo)) was 23 nM, the inhibition at 0.05 µM [1] was 82% and the IC50 [1] was 48 nM.
`CC(=O)NC1CN(c2cc(-c3nc4ccccc4n3C)c(Cl)cn2)C1` [Example A-43, N-{1-[5-chloro-4-(1-methyl-1H-benzimidazol-2-yl)pyridin-2-yl]azetidin-3-yl}acetamide] was tested, and the IC50 (Gli-Luc/MEF cells (Smo)) was 92 nM, the inhibition at 0.05 µM [1] was 86% and the IC50 [1] was 190 nM.
`CC(=O)N1CCN(c2cc(-c3nc4ccccc4n3C)c(C)cn2)CC1` [Example E-4, 2-[2-(4-acetylpiperazin-1-yl)-5-methylpyridin-4-yl]-1-methyl-1H-benzimidazole] showed an IC50 (Gli-Luc/MEF cells (Smo)) of 52.5 nM, an inhibition at 0.05 µM [1] of 92% and an IC50 [1] of 61 nM.
Molecule `Cn1c(-c2cc(N3CCC(CS(C)(=O)=O)CC3)ncc2Cl)nc2ccccc21` [Example A-51, 2-(5-chloro-2-{4-[(methylsulfonyl)methyl]piperidin-1-yl}pyridin-4-yl)-1-methyl-1H-benzimidazole] has an IC50 (Gli-Luc/MEF cells (Smo)) of 7 nM, an inhibition at 0.05 µM [1] of 99% and an IC50 [1] of 6 nM.
In the case of `COCCc1nnc2n1CCN(c1cc(-c3nc4ccccc4n3C)c(Cl)cn1)C2` [Example A-83, 7-[5-chloro-4-(1-methyl-1H-benzimidazol-2-yl)pyridin-2-yl]-3-(2-methoxyethyl)-5,6,7,8-tetrahydro[1,2,4]triazolo[4,3-a]pyrazine], the IC50 (Gli-Luc/MEF cells (Smo)) is reported as 23 nM, the inhibition at 0.05 µM [1] is reported as 91% and the IC50 [1] is reported as 49 nM.
In the case of `Cn1c(-c2cc(N3CCN(S(C)(=O)=O)CC3)ncc2Cl)nc2ccccc21` [Example A-4, 2-{5-chloro-2-[4-(methylsulfonyl)piperazin-1-yl]pyridin-4-yl}-1-methyl-1H-benzimidazole], the IC50 (Gli-Luc/MEF cells (Smo)) is reported as 3 nM, the inhibition at 0.05 µM [1] is reported as 91% and the IC50 [1] is reported as 29.2 nM.
Molecule `Cn1c(-c2cc(N3CCC4(CC3)CC(O)CCO4)ncc2Cl)nc2ccccc21` (stereo not drawn) [Example A-204, 9-[5-chloro-4-(1-methyl-1H-benzimidazol-2-yl)pyridin-2-yl]-1-oxa-9-azaspiro[5.5]undecan-4-ol] has an IC50 (Gli-Luc/MEF cells (Smo)) of 12.6 nM, an inhibition at 0.05 µM [1] of 96% and an IC50 [1] of 19 nM.
`Cn1c(-c2cc(N3CCn4c(CCCO)nnc4C3)ncc2Cl)nc2ccccc21` [Example A-106, 3-{7-[5-chloro-4-(1-methyl-1H-benzimidazol-2-yl)pyridin-2-yl]-5,6,7,8-tetrahydro[1,2,4]triazolo[4,3-a]pyrazin-3-yl}propan-1-ol] was tested, and the IC50 (Gli-Luc/MEF cells (Smo)) was 116 nM, the inhibition at 0.05 µM [1] was 78% and the IC50 [1] was 217 nM.
`CCS(=O)(=O)N1CCN(c2cc(-c3nc4ccccc4n3C)c(Cl)cn2)CC1` [Example A-27, 2-{5-chloro-2-[4-(ethylsulfonyl)piperazin-1-yl]pyridin-4-yl}-1-methyl-1H-benzimidazole] was tested, and the IC50 (Gli-Luc/MEF cells (Smo)) was 5 nM, the inhibition at 0.05 µM [1] was 93% and the IC50 [1] was 49 nM.
